Data: the supplement of paper PMC10307832

How the values were obtained:
Test in all cases: relative viability (nuclei count vs DMSO), 5 days (fraction); higher = more cells survive
[1] = system: NCI-H1355
Summary of the method: (§1)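 Lung cancer cell lines were pin-tool dosed in 1536-well plates on the day after seeding, with either a lone drug or a fixed anchor-drug dose plus five library-drug doses (not always all listed) in √10 steps. Nuclei were counted on 4× images after 5 days. Relative viability is the ratio of treated-well to vehicle-well nuclei counts, with each value a median of duplicate plates.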

[2] = system: NCI-H2170
Summary of the method: as §1

[3] = system: NCI-H1792
Summary of the method: as §1

[4] = system: NCI-H3122
Summary of the method: as §1

[5] = system: NCI-H1651
Summary of the method: as §1

[6] = system: NCI-H2347
Summary of the method: as §1

[7] = system: NCI-H322M
Summary of the method: as §1

[8] = system: LCLC-103H
Summary of the method: as §1

[9] = system: NCI-H661
Summary of the method: as §1

[10] = system: NCI-H460
Summary of the method: as §1

[11] = system: NCI-H650
Summary of the method: as §1

[12] = system: LXF-289
Summary of the method: as §1

[13] = system: SK-MES-1
Summary of the method: as §1

[14] = system: RERF-LC-KJ
Summary of the method: as §1

[15] = system: NCI-H1563
Summary of the method: as §1

[16] = system: NCI-H596
Summary of the method: as §1

[17] = system: NCI-H1755
Summary of the method: as §1

[18] = system: NCI-H520
Summary of the method: as §1

[19] = system: NCI-H727
Summary of the method: as §1

[20] = system: PC-14
Summary of the method: as §1

[21] = system: NCI-H441
Summary of the method: as §1

[22] = system: NCI-H1915
Summary of the method: as §1

Structure (SMILES): C=C1C(=O)O[C@@H](CCCCCCCC)[C@@H]1C(=O)O [C-75] + Cc1nc(NC(=O)N2CCC[C@H]2C(N)=O)sc1-c1ccnc(C(C)(C)C(F)(F)F)c1 [Alpelisib] (partner 2 µM)
- relative viability ([1]; first compound 0.08 µM): 0.815
- relative viability ([1]; first compound 0.253 µM): 0.825
- relative viability ([1]; first compound 0.8 µM): 0.825
- relative viability ([1]; first compound 2.53 µM): 0.835
- relative viability ([1]; first compound 8 µM): 0.886
- relative viability ([2]; first compound 0.08 µM): 0.796
- relative viability ([2]; first compound 0.253 µM): 0.779
- relative viability ([2]; first compound 0.8 µM): 0.776
- relative viability ([2]; first compound 2.53 µM): 0.741
- relative viability ([2]; first compound 8 µM): 0.713
- relative viability ([3]; first compound 0.08 µM): 0.67
- relative viability ([3]; first compound 0.253 µM): 0.728
- relative viability ([3]; first compound 0.8 µM): 0.687
- relative viability ([3]; first compound 2.53 µM): 0.581
- relative viability ([3]; first compound 8 µM): 0.673
- relative viability ([4]; first compound 0.08 µM): 0.767
- relative viability ([4]; first compound 0.253 µM): 0.922
- relative viability ([4]; first compound 0.8 µM): 0.765
- relative viability ([4]; first compound 8 µM): 0.801
- relative viability ([5]; first compound 0.08 µM): 0.871
- relative viability ([5]; first compound 0.253 µM): 0.988
- relative viability ([5]; first compound 0.8 µM): 1.02
- relative viability ([5]; first compound 2.53 µM): 0.793
- relative viability ([5]; first compound 8 µM): 0.882
- relative viability ([6]; first compound 0.08 µM): 1.01
- relative viability ([6]; first compound 0.253 µM): 0.987
- relative viability ([6]; first compound 0.8 µM): 1.12
- relative viability ([6]; first compound 2.53 µM): 0.956
- relative viability ([6]; first compound 8 µM): 1.09
- relative viability ([7]; first compound 0.08 µM): 0.776
- relative viability ([7]; first compound 0.253 µM): 1.05
- relative viability ([7]; first compound 0.8 µM): 0.821
- relative viability ([7]; first compound 2.53 µM): 0.771
- relative viability ([7]; first compound 8 µM): 0.836
- relative viability ([8]; first compound 0.08 µM): 0.986
- relative viability ([8]; first compound 0.253 µM): 0.94
- relative viability ([8]; first compound 0.8 µM): 1.01
- relative viability ([8]; first compound 2.53 µM): 0.89
- relative viability ([8]; first compound 8 µM): 0.908
- relative viability ([9]; first compound 0.08 µM): 0.545
- relative viability ([9]; first compound 0.253 µM): 0.477
- relative viability ([9]; first compound 0.8 µM): 0.657
- relative viability ([9]; first compound 2.53 µM): 0.409
- relative viability ([9]; first compound 8 µM): 0.718
- relative viability ([10]; first compound 0.08 µM): 0.517
- relative viability ([10]; first compound 0.253 µM): 0.485
- relative viability ([10]; first compound 0.8 µM): 0.475
- relative viability ([10]; first compound 8 µM): 0.374
- relative viability ([11]; first compound 0.08 µM): 1.1
- relative viability ([11]; first compound 0.253 µM): 0.874
- relative viability ([11]; first compound 0.8 µM): 1.08
- relative viability ([11]; first compound 2.53 µM): 1.06
- relative viability ([11]; first compound 8 µM): 1.04
- relative viability ([12]; first compound 0.08 µM): 1.01
- relative viability ([12]; first compound 0.253 µM): 0.979
- relative viability ([12]; first compound 0.8 µM): 0.992
- relative viability ([12]; first compound 2.53 µM): 0.973
- relative viability ([12]; first compound 8 µM): 1.09
- relative viability ([13]; first compound 0.08 µM): 1.1
- relative viability ([13]; first compound 0.253 µM): 0.876
- relative viability ([13]; first compound 0.8 µM): 0.902
- relative viability ([13]; first compound 2.53 µM): 0.864
- relative viability ([13]; first compound 8 µM): 0.792
- relative viability ([14]; first compound 0.08 µM): 0.834
- relative viability ([14]; first compound 0.253 µM): 0.875
- relative viability ([14]; first compound 0.8 µM): 0.817
- relative viability ([14]; first compound 2.53 µM): 0.765
- relative viability ([14]; first compound 8 µM): 0.979
- relative viability ([15]; first compound 0.08 µM): 0.939
- relative viability ([15]; first compound 0.253 µM): 0.969
- relative viability ([15]; first compound 0.8 µM): 0.886
- relative viability ([15]; first compound 2.53 µM): 0.974
- relative viability ([15]; first compound 8 µM): 0.901
- relative viability ([16]; first compound 0.08 µM): 0.51
- relative viability ([16]; first compound 0.253 µM): 0.663
- relative viability ([16]; first compound 0.8 µM): 0.476
- relative viability ([16]; first compound 2.53 µM): 0.525
- relative viability ([16]; first compound 8 µM): 0.54
- relative viability ([17]; first compound 0.08 µM): 0.938
- relative viability ([17]; first compound 0.253 µM): 0.823
- relative viability ([17]; first compound 0.8 µM): 0.913
- relative viability ([17]; first compound 2.53 µM): 0.739
- relative viability ([17]; first compound 8 µM): 0.919
- relative viability ([18]; first compound 0.08 µM): 0.836
- relative viability ([18]; first compound 0.253 µM): 1.09
- relative viability ([18]; first compound 0.8 µM): 1.02
- relative viability ([18]; first compound 2.53 µM): 0.996
- relative viability ([18]; first compound 8 µM): 1.01
- relative viability ([19]; first compound 0.08 µM): 0.467
- relative viability ([19]; first compound 0.253 µM): 0.76
- relative viability ([19]; first compound 0.8 µM): 0.616
- relative viability ([19]; first compound 2.53 µM): 0.579
- relative viability ([19]; first compound 8 µM): 0.688
- relative viability ([20]; first compound 0.08 µM): 0.897
- relative viability ([20]; first compound 0.253 µM): 1.02
- relative viability ([20]; first compound 0.8 µM): 0.904
- relative viability ([20]; first compound 2.53 µM): 0.901
- relative viability ([20]; first compound 8 µM): 1.01
- relative viability ([21]; first compound 0.08 µM): 0.762
- relative viability ([21]; first compound 0.253 µM): 0.734
- relative viability ([21]; first compound 0.8 µM): 0.577
- relative viability ([21]; first compound 2.53 µM): 0.589
- relative viability ([21]; first compound 8 µM): 0.602
- relative viability ([22]; first compound 0.08 µM): 1.06
- relative viability ([22]; first compound 0.253 µM): 1.09
- relative viability ([22]; first compound 0.8 µM): 1.07
- relative viability ([22]; first compound 2.53 µM): 0.51
- relative viability ([22]; first compound 8 µM): 1.01
